Among the test systems are PC-3; SW-620; T47D; SR; HOP-62; MOLT-4; SK-MEL-28; NCI/ADR-RES; OVCAR-4; ACHN; SN12C; UACC-62; OVCAR-8; SK-MEL-2; TK-10; HOP-92; EKVX; DU-145; BT-549.
Assay in all cases: growth of human tumour cells (NCI), 48 h

This is an account of results in ChEMBL document CHEMBL1201862, “PubChem BioAssay data set” (2004).

SMILES strings stand for the structures.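 Assay format: 96-well plates, 48-hour exposure. GI50: concentration for 50% inhibition of growth.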 The source made the active and inactive calls. Cut-off read from the data, not from the text of the source: active = GI50 up to about 1.1 µM and inactive = higher.

For `CC(=O)c1sc2c(c1OC(=O)c1ccc(Cl)cc1Cl)c(=O)n(-c1ccccc1)c(=S)n2-c1ccccc1`, the GI50 is 0.608 µM (active) in the assay on PC-3; 3.97 µM (inactive) in the assay on SW-620; 9.27 µM (inactive) in the assay on T47D; 0.501 µM (active) in the assay with SR; 1.41 µM (inactive) in the assay on HOP-62; 0.14 µM (active) in the assay on MOLT-4. Further, the GI50 was 0.475 µM (active) in the assay with SK-MEL-28; 1.05 µM (active) in the assay with NCI/ADR-RES; 13.2 µM (inactive) in the assay on OVCAR-4; 0.321 µM (active) in the assay with ACHN; 0.369 µM (active) with SN12C; 10.8 µM (inactive) in the assay on UACC-62. Further, the GI50 with OVCAR-8 is 0.418 µM (active); with SK-MEL-2 it was 0.264 µM (active); in the assay with TK-10 it was 4.57 µM (inactive); in the assay on HOP-92, 0.78 µM (active); with EKVX, 6.55 µM (inactive); with DU-145 it was 21.7 µM (inactive).

With `C/C=C1\CN(C(=O)OC(C)(C)C)C1C(=O)OC(C)(C)C` (centres undefined), the GI50 in the assay with PC-3, in the assay on SW-620, in the assay with BT-549, in the assay with SR, with HOP-62 and with MOLT-4 was > 100 µM (inactive) in each case. Moreover, the GI50 with SK-MEL-28 was > 100 µM (inactive); with NCI/ADR-RES, > 100 µM (inactive); with OVCAR-4 it was 53.6 µM (inactive); in the assay on ACHN it was > 100 µM (inactive); in the assay on SN12C, > 100 µM (inactive); in the assay on UACC-62, > 100 µM (inactive). The GI50 in the assay on OVCAR-8, with SK-MEL-2, with TK-10, in the assay on HOP-92 and in the assay on EKVX was > 100 µM (inactive) in each case.

With `CC1(C)OC(CCO)CN1C(=O)OCc1ccccc1` (centres undefined), the GI50 with PC-3 was > 100 µM (inactive); with SW-620, > 100 µM (inactive); in the assay with BT-549 it was 33.6 µM (inactive); in the assay on SR, > 100 µM (inactive); with MOLT-4, > 100 µM (inactive); in the assay with SK-MEL-28, > 100 µM (inactive). Moreover, the GI50 in the assay with NCI/ADR-RES, in the assay on OVCAR-4, in the assay with ACHN, in the assay on SN12C, in the assay on UACC-62 and in the assay on OVCAR-8 was > 100 µM (inactive) each time. The GI50 with SK-MEL-2, with TK-10, in the assay with HOP-92, with EKVX and in the assay on DU-145 was > 100 µM (inactive) each time.

Take `Brc1ccc2c(c1)-c1nc3c(cc1CC2)CCc1ccc(Br)cc1-3`: the GI50 was > 100 µM (inactive) in the assay on PC-3; > 100 µM (inactive) in the assay on SW-620; > 100 µM (inactive) with BT-549; > 100 µM (inactive) with T47D; > 100 µM (inactive) in the assay with HOP-62; 42.4 µM (inactive) in the assay with MOLT-4. In addition, the GI50 in the assay with SK-MEL-28, in the assay on NCI/ADR-RES, in the assay with OVCAR-4, in the assay with ACHN, in the assay with SN12C and in the assay with OVCAR-8 was > 100 µM (inactive) each time. Also, the GI50 in the assay on SK-MEL-2, with TK-10, in the assay with HOP-92 and in the assay on EKVX was > 100 µM (inactive) each time.

Take `Cc1ccccc1N/C(N)=N/C#N`: the GI50 with PC-3, in the assay with SW-620, with BT-549, with SR, in the assay on HOP-62 and in the assay with MOLT-4 was > 100 µM (inactive) throughout. Moreover, the GI50 with SK-MEL-28, with NCI/ADR-RES, in the assay with OVCAR-4, in the assay with ACHN, in the assay on SN12C and in the assay with UACC-62 was > 100 µM (inactive) in each case. Besides, the GI50 with OVCAR-8 is > 100 µM (inactive); with SK-MEL-2 it was > 100 µM (inactive); in the assay on TK-10 it was > 100 µM (inactive); with HOP-92 it was 97.7 µM (inactive); with EKVX it was > 100 µM (inactive); in the assay with DU-145, > 100 µM (inactive).

`COc1ccc(C(c2cc(OC)c(OC)c(OC)c2)N2C(=O)CCC2C(=O)O)cc1` (centres undefined): the GI50 in the assay on PC-3 is 46 µM (inactive); with SW-620, 50.1 µM (inactive); with T47D, 47.2 µM (inactive); in the assay with SR, 49.7 µM (inactive); in the assay with HOP-62, > 100 µM (inactive); with MOLT-4, 72.6 µM (inactive). Also, the GI50 was 51.1 µM (inactive) with SK-MEL-28; > 100 µM (inactive) in the assay on NCI/ADR-RES; > 100 µM (inactive) in the assay on OVCAR-4; 89.3 µM (inactive) in the assay on ACHN; > 100 µM (inactive) in the assay on SN12C; 51.3 µM (inactive) in the assay with UACC-62. In addition, the GI50 is 41.8 µM (inactive) in the assay on OVCAR-8; 46.8 µM (inactive) in the assay with SK-MEL-2; > 100 µM (inactive) in the assay with TK-10; > 100 µM (inactive) in the assay on HOP-92; > 100 µM (inactive) in the assay on EKVX; > 100 µM (inactive) in the assay with DU-145.

For the molecule `COc1ccc(/N=[N+](\[O-])c2ccc(OC)cc2)cc1`, the GI50 in the assay with PC-3, with BT-549, in the assay on HOP-62, in the assay on MOLT-4, with SK-MEL-28 and in the assay on NCI/ADR-RES was > 100 µM (inactive) in each case. The GI50 in the assay with OVCAR-4, in the assay on ACHN, in the assay on UACC-62, in the assay on OVCAR-8, with SK-MEL-2 and in the assay on TK-10 was > 100 µM (inactive) throughout. The GI50 in the assay on HOP-92, in the assay on EKVX and with DU-145 was > 100 µM (inactive) throughout.

Take `CCOC(=O)C1(C/C=C/CBr)Cc2ccccc2C1=O` (centres undefined): the GI50 in the assay with PC-3 was 4.13 µM (inactive); with SW-620, 2.58 µM (inactive); in the assay on BT-549 it was 2.95 µM (inactive); with T47D it was 1.98 µM (inactive); in the assay on HOP-62, 4.03 µM (inactive); with MOLT-4, 2.49 µM (inactive). The GI50 with SK-MEL-28 is 6.93 µM (inactive); in the assay on NCI/ADR-RES, 1.98 µM (inactive); in the assay on OVCAR-4, 2.03 µM (inactive); in the assay on ACHN, 2.43 µM (inactive); in the assay on SN12C, 1.99 µM (inactive); with UACC-62 it was 2.14 µM (inactive). Besides, the GI50 is 2.39 µM (inactive) in the assay with OVCAR-8; 2.25 µM (inactive) with SK-MEL-2; 2.77 µM (inactive) in the assay with TK-10; 14.6 µM (inactive) with EKVX; 3.38 µM (inactive) in the assay with DU-145.

Consider `CCN1C(=O)/C(=C2\SC(c3ccccc3)(c3ccccc3)c3ccccc32)SC1=S`, for which the GI50 in the assay on PC-3 is 74.5 µM (inactive); in the assay with BT-549 it was 43.9 µM (inactive); with SR it was 18.6 µM (inactive); in the assay on HOP-62, 27.5 µM (inactive); in the assay with MOLT-4, 96.4 µM (inactive); in the assay with SK-MEL-28, 94.2 µM (inactive). Further, the GI50 is > 100 µM (inactive) with NCI/ADR-RES; 63.4 µM (inactive) in the assay on OVCAR-4; > 100 µM (inactive) in the assay with ACHN; > 100 µM (inactive) in the assay on SN12C; > 100 µM (inactive) in the assay with UACC-62; 75.5 µM (inactive) in the assay on OVCAR-8. Moreover, the GI50 in the assay with TK-10 was > 100 µM (inactive); with HOP-92, 30.5 µM (inactive); in the assay on EKVX, 75.9 µM (inactive); in the assay on DU-145, > 100 µM (inactive).

For the molecule `CC1C2CC(CC2N)C1(C)C` (centres undefined), the GI50 in the assay on PC-3, in the assay on SW-620, in the assay on BT-549, in the assay on T47D, in the assay with SR and in the assay on HOP-62 was > 100 µM (inactive) in each case. Besides, the GI50 in the assay with MOLT-4, in the assay on SK-MEL-28, in the assay with OVCAR-4, in the assay on ACHN, in the assay on SN12C and with UACC-62 was > 100 µM (inactive) each time. Also, the GI50 with OVCAR-8, in the assay with TK-10, in the assay on HOP-92, in the assay with EKVX and with DU-145 was > 100 µM (inactive) in each case.

Turning to `CCN(CC)CCCOc1cc2c(cc1OC)C(=O)N1CCC[C@H]1C=N2`, the GI50 in the assay on PC-3 is 42.5 µM (inactive); with SW-620, 17.2 µM (inactive); in the assay on BT-549 it was 26.9 µM (inactive); in the assay on SR, 29.2 µM (inactive); in the assay with HOP-62 it was 23.3 µM (inactive); in the assay with MOLT-4 it was 19.5 µM (inactive). Also, the GI50 in the assay on SK-MEL-28 is 18.1 µM (inactive); with NCI/ADR-RES, > 100 µM (inactive); with OVCAR-4, 8.38 µM (inactive); with ACHN, 29.6 µM (inactive); with SN12C, 42.3 µM (inactive); in the assay with UACC-62, 21.4 µM (inactive). The GI50 in the assay on OVCAR-8 was 40.8 µM (inactive); with SK-MEL-2 it was 46 µM (inactive); in the assay with TK-10, 61.8 µM (inactive); in the assay on HOP-92 it was 24.6 µM (inactive); in the assay on EKVX it was 68.4 µM (inactive); in the assay on DU-145, 35.2 µM (inactive).

For `C/C=C1/C[C@@H](C)[C@@](C)(O)C(=O)OCC2=CC[N+]3([O-])CC[C@@H](OC1=O)[C@@H]23` (some centres undefined) [SENECIONINE N-OXIDE], the GI50 in the assay with PC-3, with SW-620, in the assay with BT-549, in the assay on T47D, in the assay with MOLT-4 and in the assay on SK-MEL-28 was > 100 µM (inactive) in each case. In addition, the GI50 in the assay on NCI/ADR-RES, in the assay on OVCAR-4, in the assay with ACHN, in the assay on SN12C, with UACC-62 and with OVCAR-8 was > 100 µM (inactive) throughout. In addition, the GI50 with SK-MEL-2, with TK-10, in the assay with HOP-92, in the assay with EKVX and with DU-145 was > 100 µM (inactive) in each case.
